Experimental data reported in paper PMC8878047 (Pharmaceutics, 2022).
Where two headings read alike, the source gives them in different places.

What was measured:
[1] = Description: All tests were conducted in the animal experimental center of Guangxi Medical University. Preliminary experiments were needed before starting official tests. […] Groups of mice (n = 10 per group, half male and half female) received different doses of the tested compounds by gavage at the same single dose of drug solution, which was uniformed to be […] (drug solution)/10 g, but containing different concentration of tested drugs. […] We compared these mice with the control group in which the mice were not given drugs, according to the pre-experimental procedure. We closely observed the mice for 6 h after the gavage for signs of toxicity and mortality. As soon as death occurred among the maximum-dose group, we conducted an autopsy and took samples from the main organs for histopathological examination. In addition, we monitored all of the tested mice for 2 weeks to record their weight and mortality.
[2] = tested on: wild type AB strain zebrafish; details: for statistical death of the tested zebrafish / statistical survival of the tested zebrafish: 30 embryos per well
Description: Zebrafish were incubated and grown in the Joint Laboratory established by Shandong Rui’ying Pharmaceutical Group (Heze, China) and China Pharmaceutical University. Both the Wild-type AB (Danio rerio) and Tg(mpx:eGFP) zebrafish strains were maintained under the guidance of the standard procedures of The Zebrafish Book. […] Then the zebrafish were allowed to naturally mate and spawn the next morning. The normally born embryos were then collected after 1 h and kept in an incubating system at 28 °C. The 6 hpf (hour post fertilization) embryos were transferred into a 6-well plate exposed to 5 mL of egg water, in which 30 embryos were in each well.

[3] = tested on: neutrophil cluster aggregation; assay: CuSO4-induced inflammation model in Tg(mpx:eGFP) zebrafish; details: 10 μM CuSO4 40 min, Tg(mpx:eGFP) 3 dpf
[4] = tested on: H2O2-induced ROS production; assay: H2O2-induced oxidative stress model in zebrafish (DCFH-DA); details: 48 h pre-treatment, H2O2 1.0 mM 4 h, H2O2-induced 17,250, control 590
[5] = Pharmacokinetic study in plasma after oral administration (HPLC-MS); details: SD rats, EFX 10 mg/kg, EFX-Ca 12 mg/kg
E. coli [6] = assay: Quasi-clinical trial on E. coli-infected AA broilers (drug-mixed feeding); details: for Average Final Weight / Average Weight Gain / Average Increment of Weight / Cure Rate (%) / Survival Number: AA broilers; for Average Weight Gain: Table 7; for Average Increment of Weight: Table 8; for Cure Rate (%) / Survival Number: 6 d; for Survival Number: 50 per group
Description: (§1) Then, broilers were randomly and equally divided into five different groups and marked as five groups. […] Note that the daily drug-mixed feeding ratio (g drug/kg feed) was indicated for the first 4 h every day, and unmedicated feed then followed. In addition, E. coli strains for the infection of chicken was supplied as a freeze-dried powder. They were revived and cultured according to the standard procedures. The strain was inoculated into a liquid medium and cultured in a 37 °C incubator for 6–8 h. We detected the concentration of the bacterial liquid to be 2.8 × 10^8 CFU/mL as the pathogenic concentration. Finally, all of the chickens except the healthy control group were intramuscularly injected with 0.5 mL of pathogenic bacteria, and all chickens were fasted for 4 h. After successfully simulating the bacterial infection of the chickens, the drug-mixed feeding chickens were continuously fed for 6 d. During this time, we observed their behavioral habits, mortality, and recovery rates.

E. coli [7] = assay: Quasi-clinical trial on E. coli-infected 817 broilers (drug-mixed feeding); details: for Average Final Weight / Average Weight Gain / Average Increment of Weight / Cure Rate (%) / Survival Number: 817 broilers; for Average Weight Gain: Table 7; for Average Increment of Weight: Table 8; for Cure Rate (%) / Survival Number: 6 d; for Survival Number: 50 per group
Description: as §1

[8] = 0.01 μM medicated bath, 120 hpf
[9] = EFX-Ca High 14 g drug (5% solution) + 1.5 kg feed/4 h
[10] = EFX-Ca Low 6 g drug (5% solution) + 1.5 kg feed/4 h
[11] = EFX-Ca Medium 9 g + 1.5 kg feed
[12] = EFX-Ca Medium 9 g drug (5% solution) + 1.5 kg feed/4 h
[13] = EFX-Ca High 14 g + 0.75 kg feed
[14] = EFX-Ca High 14 g drug (5% solution) + 0.75 kg feed/4 h
[15] = EFX-Ca Low 6 g drug (5% solution) + 0.75 kg feed/4 h
[16] = EFX-Ca Medium 9 g + 0.75 kg feed
[17] = EFX-Ca Medium 9 g drug (5% solution) + 0.75 kg feed/4 h

## CCN1CCN(c2cc3c(cc2F)c(=O)c(C(=O)[O-])cn3C2CC2)CC1.CCN1CCN(c2cc3c(cc2F)c(=O)c(C(=O)[O-])cn3C2CC2)CC1.O.O.O.O.[Ca+2] [EFX-Ca, [Ca(EFX)2(H2O)4]·H2O]
[1]; 2000 mg/kg single gavage, Day-0
  Body Weight (g, x¯ ± SD): 17.51 ± 1.14 g
[1]; 2000 mg/kg single gavage, Day-1
  Body Weight (g, x¯ ± SD): 19.77 ± 1.22 g
[1]; 2000 mg/kg single gavage, Day-4
  Body Weight (g, x¯ ± SD): 25.91 ± 1.83 g
[1]; 2000 mg/kg single gavage, Day-7
  Body Weight (g, x¯ ± SD): 29.78 ± 3.46 g
[1]; 2000 mg/kg single gavage, Day-14
  Body Weight (g, x¯ ± SD): 33.33 ± 5.64 g
[1]; 3031 mg/kg single gavage, Day-0
  Body Weight (g, x¯ ± SD): 18.32 ± 0.94 g
[1]; 3031 mg/kg single gavage, Day-1
  Body Weight (g, x¯ ± SD): 19.61 ± 1.23 g
[1]; 3031 mg/kg single gavage, Day-4
  Body Weight (g, x¯ ± SD): 25.70 ± 1.24 g
[1]; 3031 mg/kg single gavage, Day-7
  Body Weight (g, x¯ ± SD): 28.44 ± 2.14 g
[1]; 3031 mg/kg single gavage, Day-14
  Body Weight (g, x¯ ± SD): 33.91 ± 5.25 g
[1]; 4595 mg/kg single gavage, Day-0
  Body Weight (g, x¯ ± SD): 17.31 ± 1.05 g
[1]; 4595 mg/kg single gavage, Day-1
  Body Weight (g, x¯ ± SD): 17.09 ± 1.56 g
[1]; 4595 mg/kg single gavage, Day-4
  Body Weight (g, x¯ ± SD): 20.10 ± 5.55 g
[1]; 4595 mg/kg single gavage, Day-7
  Body Weight (g, x¯ ± SD): 26.43 ± 5.34 g
[1]; 4595 mg/kg single gavage, Day-14
  Body Weight (g, x¯ ± SD): 33.60 ± 7.07 g
[1]; 6964 mg/kg single gavage, Day-0
  Body Weight (g, x¯ ± SD): 17.68 ± 0.88 g
[1]; 6964 mg/kg single gavage, Day-1
  Body Weight (g, x¯ ± SD): 17.21 ± 1.22 g
[1]; 6964 mg/kg single gavage, Day-4
  Body Weight (g, x¯ ± SD): 16.89 ± 5.13 g
[1]; 6964 mg/kg single gavage, Day-7
  Body Weight (g, x¯ ± SD): 23.11 ± 4.21 g
[1]; 6964 mg/kg single gavage, Day-14
  Body Weight (g, x¯ ± SD): 29.30 ± 5.26 g
[1]; 10,556 mg/kg single gavage, Day-0
  Body Weight (g, x¯ ± SD): 17.67 ± 0.72 g
[1]; 10,556 mg/kg single gavage, Day-1
  Body Weight (g, x¯ ± SD): 17.00 ± 0.30 g
[1]; 10,556 mg/kg single gavage, Day-4
  Body Weight (g, x¯ ± SD): 21.53 ± 2.10 g
[1]; 10,556 mg/kg single gavage, Day-7
  Body Weight (g, x¯ ± SD): 26.47 ± 3.50 g
[1]; 10,556 mg/kg single gavage, Day-14
  Body Weight (g, x¯ ± SD): 34.00 ± 7.50 g
[1]; 16,000 mg/kg single gavage, Day-0
  Body Weight (g, x¯ ± SD): 17.84 ± 1.23 g
[1]; 16,000 mg/kg single gavage, Day-1
  Body Weight (g, x¯ ± SD): 17.43 ± 1.95 g
[1]; 16,000 mg/kg single gavage, Day-4
  Body Weight (g, x¯ ± SD): 23.55 ± 2.66 g
[1]; 16,000 mg/kg single gavage, Day-7
  Body Weight (g, x¯ ± SD): 29.15 ± 2.66 g
[1]; 16,000 mg/kg single gavage, Day-14
  Body Weight (g, x¯ ± SD): 37.25 ± 4.57 g
[2]; 0.01 μM medicated bath, 24 hpf
  statistical death of the tested zebrafish: 6
  statistical survival of the tested zebrafish: 24
[2]; 0.01 μM medicated bath, 48 hpf
  statistical death of the tested zebrafish: 6
  statistical survival of the tested zebrafish: 24
[2]; 0.01 μM medicated bath, 72 hpf
  statistical death of the tested zebrafish: 6
  statistical survival of the tested zebrafish: 24
[2]; 0.01 μM medicated bath, 96 hpf
  statistical death of the tested zebrafish: 8
  statistical survival of the tested zebrafish: 22
[2]; [8]
  statistical death of the tested zebrafish: 8
  statistical survival of the tested zebrafish: 22
[2]; 0.1 μM medicated bath, 24 hpf
  statistical death of the tested zebrafish: 4
  statistical survival of the tested zebrafish: 26
[2]; 0.1 μM medicated bath, 48 hpf
  statistical death of the tested zebrafish: 4
  statistical survival of the tested zebrafish: 26
[2]; 0.1 μM medicated bath, 72 hpf
  statistical death of the tested zebrafish: 4
  statistical survival of the tested zebrafish: 26
[2]; 0.1 μM medicated bath, 96 hpf
  statistical death of the tested zebrafish: 4
  statistical survival of the tested zebrafish: 26
[2]; 0.1 μM medicated bath, 120 hpf
  statistical death of the tested zebrafish: 4
  statistical survival of the tested zebrafish: 26
[2]; 1 μM medicated bath, 24 hpf
  statistical death of the tested zebrafish: 2
  statistical survival of the tested zebrafish: 28
[2]; 1 μM medicated bath, 48 hpf
  statistical death of the tested zebrafish: 2
  statistical survival of the tested zebrafish: 28
[2]; 1 μM medicated bath, 72 hpf
  statistical death of the tested zebrafish: 2
  statistical survival of the tested zebrafish: 28
[2]; 1 μM medicated bath, 96 hpf
  statistical death of the tested zebrafish: 2
  statistical survival of the tested zebrafish: 28
[2]; 1 μM medicated bath, 120 hpf
  statistical death of the tested zebrafish: 2
  statistical survival of the tested zebrafish: 28
[2]; 10 μM medicated bath, 24 hpf
  statistical death of the tested zebrafish: 4
  statistical survival of the tested zebrafish: 26
[2]; 10 μM medicated bath, 48 hpf
  statistical death of the tested zebrafish: 4
  statistical survival of the tested zebrafish: 26
[2]; 10 μM medicated bath, 72 hpf
  statistical death of the tested zebrafish: 4
  statistical survival of the tested zebrafish: 26
[2]; 10 μM medicated bath, 96 hpf
  statistical death of the tested zebrafish: 4
  statistical survival of the tested zebrafish: 26
[2]; 10 μM medicated bath, 120 hpf
  statistical death of the tested zebrafish: 4
  statistical survival of the tested zebrafish: 26
[2]; 20 μM medicated bath, 24 hpf
  statistical death of the tested zebrafish: 0
  statistical survival of the tested zebrafish: 30
[2]; 20 μM medicated bath, 48 hpf
  statistical death of the tested zebrafish: 0
  statistical survival of the tested zebrafish: 30
[2]; 20 μM medicated bath, 72 hpf
  statistical death of the tested zebrafish: 0
  statistical survival of the tested zebrafish: 30
[2]; 20 μM medicated bath, 96 hpf
  statistical death of the tested zebrafish: 0
  statistical survival of the tested zebrafish: 30
[2]; 20 μM medicated bath, 120 hpf
  statistical death of the tested zebrafish: 0
  statistical survival of the tested zebrafish: 30
[2]; full-range concentration 0.01 to 20 μM, 24 to 120 hpf
  physiological abnormalities of zebrafish: no obvious physiological abnormalities
[3]; 0.1 μM pre-incubation 1 h
  CuSO4-induced neutrophil aggregation: significantly dispersed
[3]; 1 μM pre-incubation 1 h
  CuSO4-induced neutrophil aggregation: the neutrophil aggregation was more effectively inhibited
[4]; 0.01 μM
  Average IOD (integrated optical density) of green fluorescence: 1060 a.u.
[4]; 0.1 μM
  Average IOD (integrated optical density) of green fluorescence: 721 a.u.
[4]; 1 μM
  Average IOD (integrated optical density) of green fluorescence: 863 a.u.
[5]; plasma
  Ke: 0.16
  Tmax: 0.75 H
  Vd: 267.44 mL/kg
  t 1/2β: 4.41 H
[5]; male, SD, rat, in vivo, Drug concentration in plasma, 0 h
  concentration at 0 h: 80 ng/mL
[5]; male, SD, rat, in vivo, Drug concentration in plasma, 0.083 h
  concentration at 0.083 h: 860 ng/mL
[5]; male, SD, rat, in vivo, Drug concentration in plasma, 0.333 h
  concentration at 0.333 h: 840 ng/mL
[5]; male, SD, rat, in vivo, Drug concentration in plasma, 0.5 h
  concentration at 0.5 h: 1690 ng/mL
[5]; male, SD, rat, in vivo, Drug concentration in plasma, 0.75 h
  concentration at 0.75 h: 1920 ng/mL
[5]; male, SD, rat, in vivo, Drug concentration in plasma, 1 h
  concentration at 1 h: 1390 ng/mL
[5]; male, SD, rat, in vivo, Drug concentration in plasma, 3 h
  concentration at 3 h: 770 ng/mL
[5]; male, SD, rat, in vivo, Drug concentration in plasma, 4 h
  concentration at 4 h: 700 ng/mL
[5]; male, SD, rat, in vivo, Drug concentration in plasma, 6 h
  concentration at 6 h: 580 ng/mL
[5]; male, SD, rat, in vivo, Drug concentration in plasma, 8 h
  concentration at 8 h: 480 ng/mL
[5]; male, SD, rat, in vivo, Drug concentration in plasma, 10 h
  concentration at 10 h: 100 ng/mL
[5]; male, SD, rat, in vivo, Drug concentration in plasma, 12 h
  concentration at 12 h: 140 ng/mL
[5]; male, SD, rat, in vivo, Drug concentration in plasma, 24 h
  concentration at 24 h: 90 ng/mL
E. coli [6]; EFX-Ca High 14 g + 1.5 kg feed
  Average Final Weight: 1750 ± 125 g
  Average Weight Gain: 250
  Average Increment of Weight: 230 g
E. coli [6]; [9]
  Cure Rate (%): 60%
  Survival Number: 30
E. coli [6]; EFX-Ca Low 6 g + 1.5 kg feed
  Average Final Weight: 1690 ± 95 g
  Average Weight Gain: 190
  Average Increment of Weight: 190 g
E. coli [6]; [10]
  Cure Rate (%): 54%
  Survival Number: 27
E. coli [6]; [11]
  Average Final Weight: 1640 ± 73 g
  Average Weight Gain: 140
  Average Increment of Weight: 280 g
E. coli [6]; [12]
  Cure Rate (%): 78%
  Survival Number: 39
E. coli [6]; AA infected chickens, EFX-Ca medium dose vs EFX
  highest cure rate, higher than the EFX dose group by: 25.8%
E. coli [7]; [13]
  Average Final Weight: 1000 ± 51 g
  Average Weight Gain: 70
  Average Increment of Weight: 80 g
E. coli [7]; [14]
  Cure Rate (%): 58%
  Survival Number: 29
E. coli [7]; EFX-Ca Low 6 g + 0.75 kg feed
  Average Final Weight: 1210 ± 67 g
  Average Weight Gain: 280
  Average Increment of Weight: 260 g
E. coli [7]; [15]
  Cure Rate (%): 88%
  Survival Number: 44
E. coli [7]; [16]
  Average Final Weight: 1010 ± 61 g
  Average Weight Gain: 80
  Average Increment of Weight: 140 g
E. coli [7]; [17]
  Cure Rate (%): 80%
  Survival Number: 40
E. coli [7]; 817 infected chickens, EFX-Ca low dose vs EFX
  highest cure rate, higher than the EFX dose group by: 37.5%
